Measurements as given in patent publication US6747012B1, “Crystalline anthracycline antibiotic and process for producing the same” (Mercian Corporation, priority 1997, dated 2004).

Tests used:
Assay type in all cases: physicochemical
[1] = Tests for hygroscopicity (critical relative humidity); details: for Critical relative humidity (%): stored at 30° C., relative humidities 32 to 91%, until steady state, calculated from increases or decreases in moisture content, hydrochloride
Method: Samples of the powders (or crystalline powders) obtained in Examples 1-8 were stored at 30° C. and at relative humidities ranging from 32 to 91%. Their moisture contents were measured until a steady state was reached.

[2] = Tests for chemical stability (storage at 60° C., HPLC); details: for Amount of remaining DM (%): hermetically sealed container, 60° C. for 1 month, HPLC, hydrochloride
Method: Each of the same samples as used in Example 12 was placed in a hermetically sealed container and stored at 60° C. for 1 month. Then, the sample was analyzed by HPLC to determine the DM content in the sample.
(Conditions for Analysis by HPLC)
Column: YMC A-312 (ODS) (manufactured by YMC Co., Ltd.).
Mobile phase: Acetonitrile-water (38:62) (adjusted to pH 2.2 with phosphoric acid).
Flow velocity: About 1.5 ml/min.

[3] = Residual solvent content by gas chromatography; details: for Residual solvent content (%): gas chromatography (GC), hydrochloride
Method: Each of the same samples as used in Example 12 was analyzed by gas chromatography (GC) to determine its residual solvent content.
(Operating Conditions for Analysis by GC)
Detector: Flame ionization detector.
Column temperature: Operated at 40° C. for 5 minutes, and then raised to 80° C. in 5 minutes and held at that temperature.
Vaporization chamber temperature: A constant temperature around 200°.
Flow rate: A constant flow rate at which the retention time of an internal standard substance (dioxane) is about 6 minutes.

COc1cccc2c1C(=O)c1c(O)c3c(c(O)c1C2=O)CC(O)(C(C)=O)CC3OC1CC(N)C(O)C(C)O1.Cl (stereo not drawn) [Ex.1, DM hydrochloride]
Critical relative humidity (%) [1]: 34%
Amount of remaining DM (%) [2]: 91.4%
Residual solvent content (%) [3]: 0.14%

COc1cccc2c1C(=O)c1c(O)c3c(c(O)c1C2=O)CC(O)(C(C)=O)CC3OC1CC(N)C(O)C(C)O1.Cl (stereo not drawn) [Ex.2, DM hydrochloride]
hygroscopicity (in words) ([1]; conclusion from Table 1): very low hygroscopicity
Critical relative humidity (%) [1]: 73%
chemical stability (in words) ([2]; conclusion from Table 2): excellent chemical stability
Amount of remaining DM (%) [2]: 100%
residual solvent content (in words) ([3]; conclusion from Table 3): within an acceptable limit
Residual solvent content (%) [3]: 0.40%

COc1cccc2c1C(=O)c1c(O)c3c(c(O)c1C2=O)CC(O)(C(C)=O)CC3OC1CC(N)C(O)C(C)O1.Cl (stereo not drawn) [Ex.3, DM hydrochloride]
Critical relative humidity (%) [1]: 41%
Amount of remaining DM (%) [2]: 97.1%
Residual solvent content (%) [3]: 0.03%

COc1cccc2c1C(=O)c1c(O)c3c(c(O)c1C2=O)CC(O)(C(C)=O)CC3OC1CC(N)C(O)C(C)O1.Cl (stereo not drawn) [Ex.4, DM hydrochloride]
Critical relative humidity (%) [1]: 28%
Amount of remaining DM (%) [2]: 90.4%
Residual solvent content (%) [3]: 0.50%

COc1cccc2c1C(=O)c1c(O)c3c(c(O)c1C2=O)CC(O)(C(C)=O)CC3OC1CC(N)C(O)C(C)O1.Cl (stereo not drawn) [Ex.5, DM hydrochloride]
Critical relative humidity (%) [1]: 29%
Amount of remaining DM (%) [2]: 97.5%
Residual solvent content (%) [3]: 0.19%

COc1cccc2c1C(=O)c1c(O)c3c(c(O)c1C2=O)CC(O)(C(C)=O)CC3OC1CC(N)C(O)C(C)O1.Cl (stereo not drawn) [Ex.6, DM hydrochloride]
Critical relative humidity (%) [1]: 29%
Amount of remaining DM (%) [2]: 94.2%
Residual solvent content (%) [3]: 0.18%

COc1cccc2c1C(=O)c1c(O)c3c(c(O)c1C2=O)CC(O)(C(C)=O)CC3OC1CC(N)C(O)C(C)O1.Cl (stereo not drawn) [Ex.7, DM hydrochloride]
Critical relative humidity (%) [1]: 41%
Amount of remaining DM (%) [2]: 97.2%
Residual solvent content (%) [3]: 0.05%

COc1cccc2c1C(=O)c1c(O)c3c(c(O)c1C2=O)CC(O)(C(C)=O)CC3OC1CC(N)C(O)C(C)O1.Cl (stereo not drawn) [Ex.8, DM hydrochloride]
Critical relative humidity (%) [1]: 53%
Amount of remaining DM (%) [2]: 96.5%
Residual solvent content (%) [3]: 0.95%
